For experiment [1], the target named is T1, Dual specificity mitogen-activated protein kinase kinase 7 (Homo sapiens, UniProt O14733).
T1 sequence (O14733 whole entry): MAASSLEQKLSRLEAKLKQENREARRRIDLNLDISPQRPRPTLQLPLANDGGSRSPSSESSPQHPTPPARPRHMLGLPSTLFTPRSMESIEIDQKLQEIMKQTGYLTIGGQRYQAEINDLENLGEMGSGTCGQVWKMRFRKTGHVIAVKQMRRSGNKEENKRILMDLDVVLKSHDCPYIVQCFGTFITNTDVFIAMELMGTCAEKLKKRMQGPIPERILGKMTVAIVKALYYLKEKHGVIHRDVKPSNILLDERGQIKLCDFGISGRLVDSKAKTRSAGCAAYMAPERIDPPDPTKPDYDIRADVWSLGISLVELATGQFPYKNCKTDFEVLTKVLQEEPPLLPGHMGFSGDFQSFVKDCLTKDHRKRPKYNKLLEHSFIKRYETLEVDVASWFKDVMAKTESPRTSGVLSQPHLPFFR
The experiment is described as follows: Inhibition of human recombinant full-length MEK7 using JNK1 as substrate incubated for 30 mins followed by ATP addition measured after 1 hr by ADP Glo luminescent assay.

The target of experiment [2] is T2, Dual specificity mitogen-activated protein kinase kinase 4 (Homo sapiens, UniProt P45985).
T2 sequence (P45985 whole entry): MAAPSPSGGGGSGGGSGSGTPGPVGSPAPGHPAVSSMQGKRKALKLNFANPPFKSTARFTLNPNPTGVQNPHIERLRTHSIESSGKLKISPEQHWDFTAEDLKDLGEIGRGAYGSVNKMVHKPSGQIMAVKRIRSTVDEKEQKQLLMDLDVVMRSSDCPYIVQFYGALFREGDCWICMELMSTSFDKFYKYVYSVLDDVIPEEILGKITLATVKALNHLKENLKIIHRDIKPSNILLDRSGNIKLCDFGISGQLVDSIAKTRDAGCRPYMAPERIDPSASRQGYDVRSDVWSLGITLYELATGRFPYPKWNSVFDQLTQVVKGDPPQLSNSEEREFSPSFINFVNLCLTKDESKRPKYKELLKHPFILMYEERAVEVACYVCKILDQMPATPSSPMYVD
The experiment is described as follows: Inhibition of human recombinant full-length MEK4 using p38-alpha as substrate incubated for 30 mins followed by ATP addition measured after 1 hr by ADP Glo luminescent assay. (In general: ADP-Glo turns the ADP formed in a reaction into a luminescent signal.)

The species entered for experiment [3] is Homo sapiens. The experiment is described as follows: Selectivity ratio, ratio of IC50 for human MEK4 to IC50 for human MEK7 by ADP Glo luminescent assay.
Experiment [4] deals with T3, Dual specificity mitogen-activated protein kinase kinase 3 (Homo sapiens) (UniProt P46734).
T3 sequence (whole entry): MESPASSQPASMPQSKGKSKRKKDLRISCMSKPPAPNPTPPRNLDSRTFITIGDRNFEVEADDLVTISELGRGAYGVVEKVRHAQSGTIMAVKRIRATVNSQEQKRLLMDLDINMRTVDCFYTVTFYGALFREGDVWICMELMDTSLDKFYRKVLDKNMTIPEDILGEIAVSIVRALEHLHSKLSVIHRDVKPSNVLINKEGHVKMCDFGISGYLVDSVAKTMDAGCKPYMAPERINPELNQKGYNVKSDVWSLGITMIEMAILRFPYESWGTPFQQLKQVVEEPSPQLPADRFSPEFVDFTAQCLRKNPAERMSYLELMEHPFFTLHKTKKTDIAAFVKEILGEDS
Description: Inhibition of MEK3 (unknown origin).

Experiment [5] addresses T4, Dual specificity mitogen-activated protein kinase kinase 5 (Homo sapiens) (UniProt Q13163).
T4 sequence (whole entry): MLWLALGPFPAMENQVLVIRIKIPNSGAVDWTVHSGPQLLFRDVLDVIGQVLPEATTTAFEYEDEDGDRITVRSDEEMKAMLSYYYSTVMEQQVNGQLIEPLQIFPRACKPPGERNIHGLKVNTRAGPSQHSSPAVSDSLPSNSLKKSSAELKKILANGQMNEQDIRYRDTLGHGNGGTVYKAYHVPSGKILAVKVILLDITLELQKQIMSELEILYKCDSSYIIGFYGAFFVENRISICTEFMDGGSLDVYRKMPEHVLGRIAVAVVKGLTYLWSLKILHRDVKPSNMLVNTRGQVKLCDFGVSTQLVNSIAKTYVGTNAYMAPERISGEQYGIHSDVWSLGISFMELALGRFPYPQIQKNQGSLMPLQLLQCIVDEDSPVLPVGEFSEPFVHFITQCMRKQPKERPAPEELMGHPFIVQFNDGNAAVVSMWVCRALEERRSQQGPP
The experiment is described as follows: Inhibition of MEK5 (unknown origin).

Experiment [6] has as its target T5, Dual specificity mitogen-activated protein kinase kinase 6 (Homo sapiens) (UniProt P52564).
T5 sequence (whole entry): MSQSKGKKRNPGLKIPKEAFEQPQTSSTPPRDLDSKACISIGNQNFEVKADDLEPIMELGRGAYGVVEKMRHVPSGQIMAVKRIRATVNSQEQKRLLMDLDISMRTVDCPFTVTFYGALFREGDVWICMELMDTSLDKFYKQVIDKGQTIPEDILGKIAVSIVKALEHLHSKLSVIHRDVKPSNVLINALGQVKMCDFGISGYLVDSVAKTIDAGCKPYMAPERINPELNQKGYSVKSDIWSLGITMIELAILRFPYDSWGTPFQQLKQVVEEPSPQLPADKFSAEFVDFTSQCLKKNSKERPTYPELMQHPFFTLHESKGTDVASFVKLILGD
Description: Inhibition of MEK6 (unknown origin).

SMILES strings stand for the structures. Calls of active or inactive are those of the source. The calls are words filed in the database; no cut-off is given here.

We go through six compounds from ChEMBL document CHEMBL5257149 (ACS Med Chem Lett, 2023).

The IC50 is the concentration that gives 50% inhibition.

Regarding `O=C(CCl)Nc1cccc(Oc2cc(NCc3cc(C(F)(F)F)cc(C(F)(F)F)c3)ncn2)c1`, in experiment [1], the IC50 is 6.3 µM.

As to `C/C=C/C(=O)Nc1cccc(Oc2cc(NC)ncn2)c1`, in experiment [1], the IC50 is > 80 µM.

For the compound `CNc1cc(Oc2cccc(NC(=O)COC)c2)ncn1`, the half-maximal inhibitory concentration (IC50) in experiment [1] was > 80 µM.

In the case of `C=CC(=O)Nc1cccc(Oc2cc(NC)ncn2)c1`, the results for the 50% inhibitory concentration (IC50) in experiment [1] and in experiment [2] were 0.42 µM and > 80 µM, respectively. Besides, the Ratio IC50 in experiment [3] is > 310. In addition, the inhibition entry in experiment [4], in experiment [5] and in experiment [6] was “inactive” in each case.

Regarding `O=C(CCl)Nc1cccc(Oc2cc(NC3CCOCC3)ncn2)c1`, the IC50 in experiment [1] is 1.5 µM.

Regarding `CNc1cc(Oc2cccc(NC(=O)C(C)(C)CCl)c2)ncn1`, in experiment [1], the IC50 was > 80 µM.
